Test results taken from patent publication US6162417A, “Pyrrolo isoquinolines” (Emory University, priority 1998, dated 2000).
pKi: −log10 of the molar value. Like-named read-outs stand apart in the source and are kept apart here.

Assays:
[1] = target: T1, human serotonin transporter (Homo sapiens, UniProt P31645); assay: Binding site inhibition in HEK-293 cell membranes transfected with human serotonin transporter ([3H]Citalopram)
T1 construct: expressed in transfected cells; host or cells: HEK-293, stably transfected

[2] = Regional brain distribution of radioactivity after intravenous administration (Table 4); type: in vivo, Sprague-Dawley rats; conditions: iv, rat, i.v., mean of three rats; for tissue uptake at 0.5 h: 30 min; for tissue uptake at 1 h: 60 min; for tissue uptake at 2 h: 120 min
From the text: (§1) Regional Distribution of Radioactivity in Tissues of Unfasted
(§2) Male Sprague-Dawley Rats Following Intravenous Administration
(§3) iodophenyl)pyrrolo[2,1-a]isoquinoline
(§4) The cerebellum contains a very low density of serotonin transporter sites and is taken as "background" in this analysis of regional uptake.

serotonin transporter = assay: as above; type: in vivo, Sprague-Dawley rats; conditions: rat, i.v.
From the text: as §1, §2, §3, §4

[3] = HEK-293 cells, human serotonin transporter, vs. [3H]Citalopram, read-out: 5-HT Ki
[4] = cerebellum, read-out: Cerebellum, mean % injected dose/gram
[5] = cortex, read-out: Cortex, mean % injected dose/gram
[6] = hypothalamus, read-out: Hypothalamus, mean % injected dose/gram
[7] = prefrontal cortex, read-out: Prefrontal Cortex, mean % injected dose/gram
[8] = striatum, read-out: Striatum, mean % injected dose/gram

T1 sequence (P31645 whole entry): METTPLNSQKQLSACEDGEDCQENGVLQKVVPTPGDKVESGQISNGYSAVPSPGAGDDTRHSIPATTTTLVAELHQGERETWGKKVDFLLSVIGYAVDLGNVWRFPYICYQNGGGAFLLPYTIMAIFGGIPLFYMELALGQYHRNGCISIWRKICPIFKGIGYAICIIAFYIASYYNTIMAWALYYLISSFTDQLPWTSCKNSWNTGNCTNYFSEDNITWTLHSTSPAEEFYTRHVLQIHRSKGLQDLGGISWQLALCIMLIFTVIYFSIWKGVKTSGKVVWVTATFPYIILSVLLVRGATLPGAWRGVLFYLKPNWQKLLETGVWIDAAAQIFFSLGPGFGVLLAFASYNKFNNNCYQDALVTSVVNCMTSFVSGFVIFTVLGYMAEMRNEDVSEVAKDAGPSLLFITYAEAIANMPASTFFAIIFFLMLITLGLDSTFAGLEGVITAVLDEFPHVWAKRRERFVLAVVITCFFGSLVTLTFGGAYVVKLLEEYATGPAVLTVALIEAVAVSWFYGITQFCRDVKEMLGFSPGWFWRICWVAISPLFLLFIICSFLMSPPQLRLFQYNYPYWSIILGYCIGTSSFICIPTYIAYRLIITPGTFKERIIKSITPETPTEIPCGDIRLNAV

SMILES: FCCSc1ccc([C@@H]2CN3CCC[C@@H]3c3ccccc32)cc1 (single isomer, unassigned) [95% ee (+) SCH2 CH2 F]
- pKi [1, 3]: 8.59

SMILES: [123I]c1ccc([C@@H]2CN3CCC[C@@H]3c3ccccc32)cc1 [(+)-[^123 I]6, (+)-(6S, 10bR)-1,2,3,5,6,10b-hexahydro-6-(4'-[^123 I]iodophenyl)pyrrolo[2,1-a]-isoquinoline]
- tissue uptake at 5 min [2, 4]: 1.23 %ID/g
- tissue uptake at 0.5 h [2, 4]: 0.78 %ID/g
- tissue uptake at 1 h [2, 4]: 0.58 %ID/g
- tissue uptake at 2 h [2, 4]: 0.39 %ID/g
- tissue uptake at 5 min [2, 5]: 2.06 %ID/g
- tissue uptake at 0.5 h [2, 5]: 1.6 %ID/g
- tissue uptake at 1 h [2, 5]: 0.89 %ID/g
- tissue uptake at 2 h [2, 5]: 0.74 %ID/g
- tissue uptake at 5 min [2, 6]: 3.69 %ID/g
- tissue uptake at 0.5 h [2, 6]: 3.59 %ID/g
- tissue uptake at 1 h [2, 6]: 3.73 %ID/g
- tissue uptake at 2 h [2, 6]: 2.85 %ID/g
- tissue uptake at 5 min [2, 7]: 5 %ID/g
- tissue uptake at 0.5 h [2, 7]: 3.72 %ID/g
- tissue uptake at 1 h [2, 7]: 3.13 %ID/g
- tissue uptake at 2 h [2, 7]: 2.25 %ID/g
- tissue uptake at 5 min [2, 8]: 3.43 %ID/g
- tissue uptake at 0.5 h [2, 8]: 2.46 %ID/g
- tissue uptake at 1 h [2, 8]: 2.28 %ID/g
- tissue uptake at 2 h [2, 8]: 2.06 %ID/g
- accumulation in brain regions (serotonin transporter): greatest accumulation in brain regions rich in serotoninergic neurons
- Cortex/Cereb ratio (serotonin transporter; 5 min): 1.7
- Hypothal/Cereb ratio (serotonin transporter; 5 min): 3.0
- PrefCx/Cereb ratio (serotonin transporter; 5 min): 4.1
- Striatum/Cereb ratio (serotonin transporter; 5 min): 2.9
- Cortex/Cereb ratio (serotonin transporter; 30 min): 2.1
- Hypothal/Cereb ratio (serotonin transporter; 30 min): 4.6
- PrefCx/Cereb ratio (serotonin transporter; 30 min): 4.8
- Striatum/Cereb ratio (serotonin transporter; 30 min): 3.2
- Cortex/Cereb ratio (serotonin transporter; 60 min): 1.6
- Hypothal/Cereb ratio (serotonin transporter; 60 min): 6.5
- PrefCx/Cereb ratio (serotonin transporter; 60 min): 5.4
- Striatum/Cereb ratio (serotonin transporter; 60 min): 4.0
- Cortex/Cereb ratio (serotonin transporter; 120 min): 1.9
- Hypothal/Cereb ratio (serotonin transporter; 120 min): 7.3
- PrefCx/Cereb ratio (serotonin transporter; 120 min): 5.8
- Striatum/Cereb ratio (serotonin transporter; 120 min): 5.3

SMILES: FCCc1ccc([C@@H]2CN3CCC[C@@H]3c3ccccc32)cc1 (relative stereo) [racemic CH2 CH2 F]
- pKi [1, 3]: 7.89

SMILES: FCCSc1ccc([C@@H]2CN3CCC[C@@H]3c3ccccc32)cc1 (relative stereo) [racemic SCH2 CH2 F]
- pKi [1, 3]: 8.24

SMILES: FCCSc1ccc([C@@H]2CN3CCC[C@@H]3c3ccccc32)cc1 (single isomer, unassigned) [95% ee (-) SCH2 CH2 F]
- pKi [1, 3]: 8.19

SMILES: C=Cc1ccc([C@@H]2CN3CCC[C@@H]3c3ccccc32)cc1 (relative stereo) [racemic CH=CH2]
- pKi [1]: 8.43
